# From US11535633B2, “Fused tricyclic heterocycle compounds and therapeutic uses thereof” (Jiangsu Hengrui Medicine Co., Ltd., priority 2018, dated 2022)
# Experiments:
# [1] = target: T1, STING in THP1-Dual KI-hSTING-R232 cells (Homo sapiens, UniProt Q86WV6, H232R); assay: Human THP1 reporter cell assay (IRF luciferase reporter); format: cell-based; settings: 24 hours incubation
# T1 construct: host or cells: THP1-Dual KI-hSTING-R232 cells (human monocytic THP-1 reporter line)
# Procedure: Test Example 2. Human THP1 Reporter Cell Assay
# • 1. Human THP1-Dual KI-hSTING-R232 Cells (InvivoGen, Cat. #thpd-r232) • 2. QUANTI-LUC (InvivoGen, Cat. #rep-qlc2) • 3. Media for cell culture and compound dilution: RPMI with high glucose and glutamine (Genesee, Cat. #25-506), 10% fetal bovine serum (Life Technologies, Cat. #10082147), 25 mM HEPES (Genesee, Cat. #25-534), 100 μg/ml Normocin (InvivoGen, Cat. #ant-nr-2), 10 μg/ml blasticidin (InvivoGen, Cat. #ant-bl-05), 100 μg/ml Zeocin (InvivoGen, Cat. #ant-zn-5p) and Penicillin-Streptomycin (100×) (Life Technologies, Cat. #15140122) • 4. Infinite M1000 plate reader (TECAN) Experimental Procedure
# Activation of STING in THP1-Dual KI-hSTING-R232 cells was determined by measuring the luminescence signal resulting from the expression of the IRF luciferase reporter gene. All reagent preparation and assay procedures were conducted according to the protocols provided by InvivoGen. In brief, test compounds and cells (1×10^5 cells per well) were dispensed into 96-well plates with a final volume per well of 150 μl. Plates were incubated in a humidified, 5% CO2 incubator at 37° C. for 24 hours. The expression level of the reporter gene was measured by transferring 20 μl of the supernatant to a non-transparent 96-well plate to which 50 μl of QUANTI-LUC was dispensed into each well. The resulting luminescence signal was immediately read using a TECAN plate reader. The background luminescence signal from media was subtracted. The fold induction effect of the luminescence signal at each compound concentration was determined relative to controls that lack compound treatment. The plot of fold induction effect versus the log of compound concentration was fit in GraphPad Prism with a 4-parameter concentration response equation to calculate EC50 and Emax.
# Activation of STING in THP1 of the compounds in the present invention was determined by the above assay, and EC50 values are shown in the following table 2.
# [2] = target: T2, hSTING c-terminal domain (purified hSTING aa154-342) (Homo sapiens, UniProt Q86WV6); assay: Thermal shift assay for measuring the relative binding affinity to hSTING c-terminal domain; settings: Tm of sample minus mean Tm of negative control (buffer, 2% DMSO), SYPRO Orange
# T2 construct: Purified hSTING (aa154-342)
# T2 sequence (Q86WV6 154-342): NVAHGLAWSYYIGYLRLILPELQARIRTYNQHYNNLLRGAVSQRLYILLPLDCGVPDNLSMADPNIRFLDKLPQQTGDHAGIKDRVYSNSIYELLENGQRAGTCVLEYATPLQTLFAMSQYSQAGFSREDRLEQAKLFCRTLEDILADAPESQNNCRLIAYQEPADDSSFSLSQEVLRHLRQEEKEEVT
# Procedure: Test Example 1. Thermal Shift Assay for Measuring the Relative Binding Affinity to hSTING c-Terminal Domain
# From each of the 10 mM stock solutions of compounds in DMSO, dilutions are made to create samples with three concentrations 10 mM, 5 mM and 2.5 mM. From these dilutions a final 50 fold dilution is made into assay buffer, giving concentrations of 200 μM, 100 μM, and 50 μM. From each of the buffer dilutions, 5 μL is added to the 384 well assay plate. A positive control is setup with cGAMP using the same dilution scheme as the ligands. A baseline thermal shift for the negative control is determined using buffer and 2% DMSO.
# An aliquot of protein is thawed on ice and SYPRO orange reagent is brought to room temperature. The 5000× SYPRO orange stock is diluted in assay buffer to a concentration of 10×. Protein is diluted to a concentration of 10 μM in the prepared buffer/dye solution. Five micro-liters of protein/buffer/dye solution is added to each of the sample and control wells, and the plate is sealed with the provided films. The plate is centrifuged for 5 min at 20° C. at 1000 rpm.
# On the Light Cycler instrument, measurements are made over a temperature gradient from 20° C. to 99° C. at 0.07° C./s and data acquisitions collected at a rate of 8/° C. is used to measure the change in fluorescence as a function of temperature. Data analysis is performed using the Roche Light Cycler Software to determine the melting temperature (Tm ° C.) of each sample. A mean Tm ° C. for the negative control is calculated and subtracted from each of the samples to generate the ΔTm ° C. values for each of the ligands.
# The relative binding affinity to hSTING c-terminal domain of the compounds of the present invention was determined by the above assay, and ΔTm ° C. values are shown in the following table 1.
# T1 sequence (Q86WV6 whole entry H232R): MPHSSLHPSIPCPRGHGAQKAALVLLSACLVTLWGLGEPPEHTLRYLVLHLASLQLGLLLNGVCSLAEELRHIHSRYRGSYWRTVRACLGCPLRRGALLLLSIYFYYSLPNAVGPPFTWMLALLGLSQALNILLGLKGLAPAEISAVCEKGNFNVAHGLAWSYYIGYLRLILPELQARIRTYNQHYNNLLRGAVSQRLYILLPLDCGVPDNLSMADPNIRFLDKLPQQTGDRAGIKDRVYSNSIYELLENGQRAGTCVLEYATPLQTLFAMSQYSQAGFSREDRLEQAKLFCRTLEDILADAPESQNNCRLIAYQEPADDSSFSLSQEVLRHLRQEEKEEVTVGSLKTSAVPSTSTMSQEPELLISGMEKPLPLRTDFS
EC50 [1],ΔTm at 100 µM [2],Structure (SMILES)
> 20 µM,,"C/C=C/C[C@@H]1COc2cc(C(N)=O)cc3nc(NC(=O)c4cc(C)nn4CC)n1c23 [Example 5-1, (R,E)-3-(but-2-en-1-yl)-2-(1-ethyl-3-methyl-1H-pyrazole-5-carboxamido)-3,4-dihydro-5-oxa-1,2a-diazaacenaphthylene-7-carboxamide]"
2.6 µM,7.5 °C,"CCC=CC[C@H]1COc2cc(C(N)=O)cc3nc(NC(=O)c4cc(C)nn4CC)n1c23 [Example 8, (S)-2-(1-ethyl-3-methyl-1H-pyrazole-5-carboxamido)-3-(pent-2-en-1-yl)-3,4-dihydro-5-oxa-1,2a-diazaacenaphthylene-7-carboxamide]"
0.1 µM,13 °C,"CCn1nc(C)cc1C(=O)Nc1nc2cc(C(N)=O)cc(OCCO)c2n1CCC[C@H]1COc2cc(C(N)=O)cc3nc(NC(=O)c4cc(C)nn4CC)n1c23 [Example 20, (S)-3-(3-(5-carbamoyl-2-(1-ethyl-3-methyl-1H-pyrazole-5-carboxamido)-7-(2-hydroxyethoxy)-1H-benzo[d]imidazol-1-yl)propyl)-2-(1-ethyl-3-methyl-1H-pyrazole-5-carboxamido)-3,4-dihydro-5-oxa-1,2a-diazaacenaphthylene-7-carboxamide]"
0.06 µM,13 °C,"CCn1nc(C)cc1C(=O)Nc1nc2cc(C(N)=O)cc(OCCCOC)c2n1CCC[C@H]1COc2cc(C(N)=O)cc3nc(NC(=O)c4cc(C)nn4CC)n1c23 [Example 21, (S)-3-(3-(5-carbamoyl-2-(1-ethyl-3-methyl-1H-pyrazole-5-carboxamido)-7-(3-methoxypropoxy)-1H-benzo[d]imidazol-1-yl)propyl)-2-(1-ethyl-3-methyl-1H-pyrazole-5-carboxamido)-3,4-dihydro-5-oxa-1,2a-diazaacenaphthylene-7-carboxamide]"
> 20 µM,,"C=CCC1CCCOc2cc(C(N)=O)cc3nc(NC(=O)c4cc(C)nn4CC)n1c23 (stereo not drawn) [Example 27, 10-allyl-1-(1-ethyl-3-methyl-1H-pyrazole-5-carboxamido)-7,8,9,10-tetrahydro-6-oxa-2,10a-diazacycloocta[cd]indene-4-carboxamide]"
> 20 µM,,"CCn1nc(C)cc1C(=O)Nc1nc2cc(C(N)=O)cc3c2n1[C@@H](C/C=C/CC(CC(=O)c1cc2cc(OC)c(OC)cc2s1)C(=O)O)CO3 (stereo partly drawn) [Example 28, (E)-6-((S)-7-carbamoyl-2-(1-ethyl-3-methyl-1H-pyrazole-5-carboxamido)-3,4-dihydro-5-oxa-1,2a-diazaacenaphthylen-3-yl)-2-(2-(5,6-dimethoxybenzo[b]thiophen-2-yl)-2-oxoethyl)hex-4-enoic acid]"
12 µM,,"C=CC[C@H]1CNc2cc(C(N)=O)cc3nc(NC(=O)c4cc(C)nn4CC)n1c23 [Example 29, (S)-4-allyl-2-(1-ethyl-3-methyl-1H-pyrazole-5-carboxamido)-5,6-dihydro-4H-imidazo[1,5,4-de]quinoxaline-8-carboxamide]"
1.5 µM,,"C=CC[C@H]1CN(CCCOC)c2cc(C(N)=O)cc3nc(NC(=O)c4cc(C)nn4CC)n1c23 [Example 30, (S)-4-allyl-2-(1-ethyl-3-methyl-1H-pyrazole-5-carboxamido)-6-(3-methoxypropyl)-5,6-dihydro-4H-imidazo[1,5,4-de]quinoxaline-8-carboxamide]"
2.4 µM,,"C=CC[C@H]1CN(C)c2cc(C(N)=O)cc3nc(NC(=O)c4cc(C)nn4CC)n1c23 [Example 31, (S)-4-allyl-2-(1-ethyl-3-methyl-1H-pyrazole-5-carboxamido)-6-methyl-5,6-dihydro-4H-imidazo[1,5,4-de]quinoxaline-8-carboxamide]"
